Results from the NIST ThermoML archive (doi:10.1016/j.jct.2007.11.009).
± gives the expanded uncertainty stated by the source.

Test: xn = mol fraction of the nth substance listed
Conditions: 328.15 K, Liquid, Vibrating tube method

CCCCCCCC [octane] + c1ccccc1
mass density [kg/m3]
Conditions	x1 = 0.1097	x1 = 0.2036	x1 = 0.2984	x1 = 0.4069	x1 = 0.5027	x1 = 0.5904	x1 = 0.6989	x1 = 0.7964	x1 = 0.904	x1 = 1
100 kPa	807.9 ± 0.2	784.5 ± 0.2	764.1 ± 0.2	744.3 ± 0.3	729.2 ± 0.3	717 ± 0.3	704 ± 0.3	693.3 ± 0.3	683 ± 0.3	674.5 ± 0.3
2130 kPa	810 ± 0.2	786.7 ± 0.3	766.2 ± 0.3	746.5 ± 0.3	731.4 ± 0.3	719.1 ± 0.3	706.1 ± 0.3	695.5 ± 0.3	685.1 ± 0.3	676.6 ± 0.3
4150 kPa	812.1 ± 0.3	788.7 ± 0.3	768.3 ± 0.3	748.6 ± 0.3	733.5 ± 0.3	721.2 ± 0.3	708.2 ± 0.3	697.6 ± 0.3	687.2 ± 0.3	678.7 ± 0.3
6180 kPa	814.1 ± 0.3	790.8 ± 0.3	770.4 ± 0.3	750.7 ± 0.3	735.6 ± 0.3	723.3 ± 0.3	710.3 ± 0.3	699.7 ± 0.3	689.2 ± 0.3	680.7 ± 0.3
8210 kPa	816.1 ± 0.3	792.8 ± 0.3	772.4 ± 0.3	752.7 ± 0.3	737.6 ± 0.3	725.3 ± 0.3	712.3 ± 0.3	701.7 ± 0.3	691.2 ± 0.3	682.6 ± 0.3
10230 kPa	818 ± 0.3	794.7 ± 0.3	774.4 ± 0.3	754.7 ± 0.3	739.6 ± 0.3	727.3 ± 0.3	714.3 ± 0.3	703.7 ± 0.3	693.2 ± 0.3	684.6 ± 0.3
11250 kPa	818.9 ± 0.3	795.7 ± 0.3	775.3 ± 0.3	755.6 ± 0.3	740.6 ± 0.3	728.3 ± 0.3	715.2 ± 0.3	704.6 ± 0.3	694.1 ± 0.3	685.5 ± 0.4
12260 kPa	819.9 ± 0.3	796.6 ± 0.3	776.3 ± 0.3	756.6 ± 0.3	741.5 ± 0.3	729.2 ± 0.3	716.2 ± 0.3	705.6 ± 0.3	695 ± 0.4	686.4 ± 0.4
14290 kPa	821.7 ± 0.3	798.5 ± 0.3	778.2 ± 0.3	758.5 ± 0.3	743.4 ± 0.3	731.1 ± 0.3	718.1 ± 0.4	707.4 ± 0.4	696.9 ± 0.4	688.3 ± 0.4
16310 kPa	823.6 ± 0.3	800.4 ± 0.3	780.1 ± 0.3	760.4 ± 0.3	745.3 ± 0.4	733 ± 0.4	719.9 ± 0.4	709.3 ± 0.4	698.7 ± 0.4	690.1 ± 0.4
18340 kPa	825.3 ± 0.3	802.1 ± 0.3	781.9 ± 0.3	762.2 ± 0.4	747.1 ± 0.4	734.8 ± 0.4	721.7 ± 0.4	711.2 ± 0.4	700.5 ± 0.4	691.8 ± 0.4
20370 kPa	827.1 ± 0.3	803.9 ± 0.3	783.6 ± 0.3	763.9 ± 0.4	748.9 ± 0.4	736.6 ± 0.4	723.4 ± 0.4	713 ± 0.4	702.2 ± 0.4	693.6 ± 0.4
22390 kPa	828.8 ± 0.3	805.7 ± 0.3	785.4 ± 0.4	765.7 ± 0.4	750.6 ± 0.4	738.3 ± 0.4	725.1 ± 0.4	714.5 ± 0.4	703.9 ± 0.4	695.2 ± 0.5
24420 kPa	830.5 ± 0.3	807.4 ± 0.4	787.1 ± 0.4	767.4 ± 0.4	752.3 ± 0.4	740 ± 0.4	726.8 ± 0.4	716.2 ± 0.5	705.6 ± 0.5	696.9 ± 0.5
26450 kPa	832.2 ± 0.3	809.1 ± 0.4	788.8 ± 0.4	769.1 ± 0.4	754 ± 0.4	741.6 ± 0.4	728.5 ± 0.5	717.8 ± 0.5	707.2 ± 0.5	698.5 ± 0.5
28470 kPa	833.8 ± 0.3	810.7 ± 0.4	790.4 ± 0.4	770.7 ± 0.4	755.6 ± 0.4	743.2 ± 0.5	730.1 ± 0.5	719.4 ± 0.5	708.8 ± 0.5	700 ± 0.5
29490 kPa	834.6 ± 0.3	811.5 ± 0.4	791.2 ± 0.4	771.5 ± 0.4	756.4 ± 0.4	744 ± 0.5	730.9 ± 0.5	720.1 ± 0.5	709.6 ± 0.5	700.8 ± 0.5
30500 kPa	835.4 ± 0.4	812.3 ± 0.4	792 ± 0.4	772.3 ± 0.4	757.2 ± 0.4	744.8 ± 0.5	731.7 ± 0.5	720.9 ± 0.5	710.3 ± 0.5	701.6 ± 0.5
32530 kPa	837 ± 0.4	813.9 ± 0.4	793.6 ± 0.4	773.9 ± 0.4	758.8 ± 0.5	746.4 ± 0.5	733.2 ± 0.5	722.5 ± 0.5	711.9 ± 0.5	703 ± 0.6
34550 kPa	838.5 ± 0.4	815.5 ± 0.4	795.2 ± 0.4	775.4 ± 0.5	760.3 ± 0.5	747.9 ± 0.5	734.7 ± 0.5	724 ± 0.5	713.4 ± 0.6	704.5 ± 0.6
36580 kPa	840 ± 0.4	817 ± 0.4	796.7 ± 0.4	777 ± 0.5	761.8 ± 0.5	749.4 ± 0.5	736.2 ± 0.5	725.5 ± 0.6	714.8 ± 0.6	706 ± 0.6
38600 kPa	841.5 ± 0.4	818.5 ± 0.4	798.2 ± 0.5	778.4 ± 0.5	763.3 ± 0.5	750.9 ± 0.5	737.7 ± 0.6	726.9 ± 0.6	716.2 ± 0.6	707.4 ± 0.6
39620 kPa	842.3 ± 0.5	819.1 ± 0.5	798.9 ± 0.5	779.2 ± 0.5	764 ± 0.5	751.6 ± 0.6	738.4 ± 0.6	727.6 ± 0.6	716.9 ± 0.6	708.1 ± 0.6
